Source: PubChem BioAssay (NCI)
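Assay format: 96-well plates, 48-hour exposure. Abbreviation: GI50, concentration required for 50% inhibition of growth. Definition used: TGI = concentration required for complete inhibition of growth.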

How the values were obtained:
Experiment in all cases: growth of human tumour cells (NCI), 48 h
[1] = test system: HCC-2998 colon
[2] = test system: ACHN renal
[3] = test system: NCI/ADR-RES ovarian
[4] = test system: SF-295 CNS
[5] = test system: RPMI-8226 leukemia
[6] = test system: PC-3 prostate
[7] = test system: K-562 leukemia
[8] = test system: SN12C renal
[9] = test system: CAKI-1 renal
[10] = test system: SK-MEL-2 melanoma

| SMILES | TGI [1] | TGI [2] | TGI [3] | TGI [4] | TGI [5] | TGI [6] | TGI [7] | TGI [8] | GI50 [9] | TGI [9] | GI50 [2] | GI50 [3] | GI50 [4] | GI50 [5] | GI50 [6] | GI50 [7] | TGI [10] | GI50 [1] | GI50 [10] | GI50 [8] |
| --- | --- | --- | --- | --- | --- | --- | --- | --- | --- | --- | --- | --- | --- | --- | --- | --- | --- | --- | --- | --- |
| Cc1ccc(N2C(=O)C=C(C3=C(O)C(=O)N(c4ccc(C)cc4)C3=O)C2=O)cc1 | > 100 µM | > 100 µM | > 100 µM | > 100 µM | > 100 µM | > 100 µM | > 100 µM | > 100 µM | – | – | – | – | – | – | – | – | – | – | – | – |
| c1cc(N2CCCN(c3ccc(C4=NCCCN4)cc3)CC2)ccc1C1=NCCCN1 | – | > 100 µM | > 100 µM | > 100 µM | > 100 µM | > 100 µM | > 100 µM | – | > 100 µM | > 100 µM | > 100 µM | > 100 µM | 51.1 µM | > 100 µM | 91.9 µM | 88 µM | – | – | – | – |
| CC(=O)NC1=C(NC(C)(C)C)C(=O)c2ccccc2C1=O | > 100 µM | > 100 µM | – | > 100 µM | 37.1 µM | – | 25.2 µM | 34.8 µM | – | 30 µM | – | – | – | – | – | – | 42.9 µM | – | – | – |
| C=C(C#N)C1OCC2OC(C)(C)OC21 (centres undefined) | 83.6 µM | 42.4 µM | – | > 100 µM | – | – | 72 µM | 38.2 µM | – | 49.1 µM | – | – | – | – | – | – | 77.2 µM | – | – | – |
| COc1ccc(-c2cc(=O)c3ccccc3o2)cc1N | > 100 µM | > 100 µM | – | > 100 µM | > 100 µM | – | > 100 µM | > 100 µM | – | > 100 µM | – | – | – | – | – | – | > 100 µM | – | – | – |
| COc1ccc(/C(=N\NC(=O)C(=O)NN)C(c2ccc(OC)cc2)C2(O)C(=O)Nc3ccccc32)cc1 (centres undefined) | – | > 100 µM | – | – | > 100 µM | – | > 100 µM | > 100 µM | – | > 100 µM | – | – | – | – | – | – | > 100 µM | – | – | – |
| Cn1nc(-c2ccccc2)c(C(=O)/C=C/c2ccc(Cl)cc2)c(N2CCCCC2)c1=O | – | 4.31 µM | – | 2.14 µM | 5.52 µM | – | 5.39 µM | 20.5 µM | – | 3.94 µM | – | – | – | – | – | – | – | – | – | – |
| C[C@]12CCC(=O)C(O)=C1CC[C@@H]1C2CC[C@]2(C)NC(=O)CCC12 (some centres undefined) | – | > 100 µM | – | > 100 µM | > 100 µM | – | > 100 µM | > 100 µM | – | > 100 µM | – | – | – | – | – | – | > 100 µM | – | – | – |
| CC(C)(C)CC(C)(C)c1cc2c(O)c(c1)Cc1cc(C(C)(C)CC(C)(C)C)cc(c1O)Cc1cc(C(C)(C)CC(C)(C)C)cc(c1O)Cc1cc(C(C)(C)CC(C)(C)C)cc(c1O)Cc1cc(C(C)(C)CC(C)(C)C)cc(c1O)C2 | > 100 µM | > 100 µM | – | > 100 µM | > 100 µM | – | > 100 µM | > 100 µM | – | – | – | – | – | – | – | – | > 100 µM | – | – | – |
| C=C1C(C2(C)C(OC(C)=O)CC(=O)OC(C)(COC(C)=O)C2CC(=O)OC)C(OC=O)C(OC(=O)C(O)C(C)CC)C2(C)C(c3ccoc3)CC(=O)C12O (centres undefined) | – | > 52.8 µM | > 100 µM | > 100 µM | > 100 µM | > 100 µM | > 31.6 µM | > 100 µM | – | 11.7 µM | – | – | – | – | – | – | > 100 µM | – | – | – |
| CCN(CC)CCC(=O)c1ccc(C)cc1 | > 100 µM | 41 µM | 65.7 µM | > 100 µM | – | > 100 µM | 52.3 µM | > 100 µM | – | – | – | – | – | – | – | – | – | – | – | – |
| Cc1cccc(C)c1CO | > 100 µM | > 100 µM | – | > 100 µM | > 100 µM | – | > 100 µM | > 100 µM | – | > 100 µM | – | – | – | – | – | – | > 100 µM | – | – | – |
| CC1=C[C@]2(O)C(=O)[C@H](C)C[C@H]3[C@@H](CC[C@@](C)(O)/C=C\2C1=O)C3(C)C | > 69.5 µM | 54.6 µM | – | 75.8 µM | > 73.3 µM | – | > 100 µM | 41.5 µM | – | 55.4 µM | – | – | – | – | – | – | 37.9 µM | – | – | – |
| CCOc1ccc(N=Cc2ccc3cc(C)ccc3n2)cc1 | > 100 µM | > 100 µM | – | > 100 µM | 57.3 µM | – | 69.8 µM | > 100 µM | – | > 100 µM | – | – | – | – | – | – | > 100 µM | – | – | – |
| O=C(c1ccccc1)c1c(-c2ccccc2)sc2nc3ccccc3nc12 | > 100 µM | > 100 µM | – | > 100 µM | > 100 µM | – | > 100 µM | > 100 µM | – | > 100 µM | – | – | – | – | – | – | > 100 µM | – | – | – |
| CC(=O)[CH-]C(=O)c1ccccc1.CC(=O)[CH-]C(=O)c1ccccc1.CC(C)CCCC(C)[C@H]1CCC2[C@@H]3CC=C4C[C@@H]([O-])CC[C@]4(C)C3CC[C@@]21C.CC(C)CCCC(C)[C@H]1CCC2[C@@H]3CC=C4C[C@@H]([O-])CC[C@]4(C)C3CC[C@@]21C.[Ti+4] (some centres undefined) | > 100 µM | > 100 µM | – | – | > 100 µM | – | > 100 µM | > 100 µM | > 100 µM | > 100 µM | > 100 µM | – | – | > 100 µM | – | > 100 µM | > 100 µM | > 100 µM | > 100 µM | > 100 µM |
| Cc1ccc(/C(O)=C/c2nc3c(nc2NC24CC5CC(CC(C5)C2)C4)c(=O)oc2ccccc23)cc1 | > 100 µM | > 100 µM | – | – | > 100 µM | – | > 100 µM | > 100 µM | – | > 100 µM | – | – | – | – | – | – | > 100 µM | – | – | – |
| O=C(O)Cc1cc(=O)[nH]c2c1/C(=N/O)CCC2 | > 100 µM | > 100 µM | – | > 100 µM | > 100 µM | – | > 100 µM | > 100 µM | – | – | – | – | – | – | – | – | > 100 µM | – | – | – |
| CC(C)[O-].CC(C)[O-].O=C1C=C([O-])C(=O)c2ccccc21.O=C1C=C([O-])C(=O)c2ccccc21.[Ti+4] | > 100 µM | > 100 µM | – | > 100 µM | > 100 µM | – | > 100 µM | > 100 µM | > 91.3 µM | > 100 µM | > 85.5 µM | – | 28.1 µM | 19.1 µM | – | > 89.4 µM | > 71.2 µM | > 91.7 µM | 17.2 µM | > 100 µM |
| COc1ccc(NC(=O)CC/C(CC(=O)C(C)(C)C)=N\NC(=O)C(=O)NN)cc1 | > 100 µM | > 100 µM | – | > 100 µM | > 100 µM | – | > 100 µM | > 100 µM | – | > 100 µM | – | – | – | – | – | – | > 100 µM | – | – | – |
| C=C1C(=O)OC2C1CCC(C)C1C=CC(=O)C12C (centres undefined) | 26.6 µM | 3.25 µM | – | 18.1 µM | > 25.3 µM | 17.3 µM | 11.3 µM | 13.5 µM | – | 6.75 µM | – | – | – | – | – | – | 17.5 µM | – | – | – |
| CC(=C/C=C/C=C(C)\C=C\C=C(\C)C(=O)O)/C=C/C=C(/C)C(=O)O | – | > 100 µM | > 100 µM | > 100 µM | > 100 µM | > 100 µM | > 100 µM | > 100 µM | – | > 100 µM | – | – | – | – | – | – | > 100 µM | – | – | – |
